Assay results as given in patent US8414885B2, “Methods and compositions for treating cancer” (priority 2009, dated 2013).

Legend:
[1] = tested on: LC3-I/LC3-II; assay: Immunoblotting for LC3-I conversion to LC3-II (autophagy); type: cell-based, human; settings: A2058, 3-MA 5 mM
Procedure: (§1) FIG. 14. ΔPK induced autophagy contributes to its ability to cause melanoma cell death. (A) A2058 cells were mock or ΔPK-infected (multiplicity of infection, moi=1.0) with and without the autophagy inhibitor 3-MA and protein extracts were assayed for LC3-I and LC3-II expression by immunoblotting. Data were quantified by densitometric scanning, and results are expressed as LC3-I/LC3-II ratio±s.d. (B). A2058 melanoma cultures were mock or ΔPK-infected (moi=5), cultured in serum-free medium and stained with ethidium homodimer-1 (EtHD-1) at 48 h p.i. Cells were counted in three randomly selected fields (>250 cells) and the mean percentage of staining cells was calculated.
The role of autophagy in cell death is still controversial. The general consensus is that autophagy is a mechanism that promotes or counteracts cell death depending on the cell type, stimulus and conditions. […] To examine whether autophagy was increased in ΔPK infected cells, we focused on LC3-I conversion to LC3-II which serves as a marker for autophagosome maturation.
A2058 cells were mock and ΔPK-infected (multiplicity of infection, moi=1.0) with and without the autophagy inhibitor 3-MA. Data were quantified by densitometric scanning, and results are expressed as the ratio of the LC3-I/LC3-II ratio±s.d.

[2] = tested on: A2058 melanoma cultures; assay: EtHD-1 cell death with or without autophagy inhibitor; type: cell-based, human; settings: A2058, ΔPK plus 3-MA, 48 h p.i.
Procedure: as §1
To examine the role of autophagy in ΔPK-induced melanoma cell death, the cultures were mock-infected with PBS or infected with ΔPK in the absence or presence of 3-MA and cell death was determined at 0-72 h p.i. by EtHD-1 staining. ΔPK caused a time-dependent increase in the percentage of EtHD-1+ cells that reached maximal levels at 48 h p.i. (51.1±4.8%,).
A2058 melanoma cultures were mock or ΔPK-infected (moi=0.5), cultured in serum-free medium and stained with ethidium homodimer-1 (EtHD-1) at 48 h p.i. Cells were counted in three randomly selected fields (>250 cells) and the mean percentage of staining cells was calculated.

Question: Which “effect of inhibitor on LC3-I conversion after ΔPK treatment” value [1] does the source give for Cn1cnc(N)c2ncnc1-2 [3-MA, 3-Methyl-adenine] here?
Answer: reversed LC3-I conversion

Question: What about the “percentage of cell death (EtHD-1+) in ΔPK infected cultures in presence of inhibitor” value [2] of the same compound?
Answer: 37.3±5.2%
